# Results as given in patent US7771426B2, “Bone treatment instrument and method” (University Health Network, priority 2004, dated 2010).
# Entries after “also recorded” stand apart in the source; their conditions may differ.
# How the values were obtained:
# MT-1 cells = experiment: PDT effect on in vitro MT-1 cells (SRB assay); type: cell-based, human
# Method: Method: MT-1 cells were grown and maintained in RPMI media containing penicillin and streptomycin with 10% fetal bovine serum at 37 degrees Celsius. Once the cells had reached subconfluence they were resuspended in free RPMI. The cells were harvested using 0.05% trypsin—0.05 mM EDTA solution. Cells were then counted with a hemocytometer and plated at 2×10^5 cells/ml in a 96 well plate. BPD-MA was then added to the individual wells at a concentration of 1 ug/ml or 10 ug/ml. […] Following treatment the cells were allowed to survive for 24 hours following which an SRB assay was performed to establish the number of viable cells remaining. Briefly, cells were fixed in 10% trichloroacetic acid and stained with a […] solution selectively staining viable cells. A spectrophotometer was then used to assess the absorbance of 540 nm light within individual wells of the 96 well plate which was correlated to the number of remaining cells following treatment.
# [1] = BPD uptake in the serum and spinal cord (fluorimetry, fluorescent microscopy); type: in vivo, rats (Sprague-Dawley)
# Method: Method: BPD-MA was administered to 10 rats (Sprague-Dawley, 150 gm) through a tail vein injection. Animals were then sacrificed using CO2 inhalation overdose at 16 minutes, 3 hrs, 6 hrs and 24 hrs following injection. Control animals without BPD-MA were euthanized in a similar fashion. Serum samples and spinal cord tissue samples were harvested from the animals at the time of euthanasia. A segment of spine was also fixed in 10% formalin for 7 days followed by decalcification for 7 days in 10% formic acid for fluoroscopic microscopic analysis. A control assay determined that BPD-MA fluorescence was not affected by formic acid. BPD-MA concentration within the serum and spinal cord tissue was then determined using fluorimetry. Briefly, the samples were solubilized and the samples were tested with excitation and emission spectra specific to BPD-MA. The fluorescence of the drug within the tissue was correlated to the specific uptake of the drug within the tissue. Fluorescent microscopy was also used to visualize the presence or absence of BPD-MA within the vertebrae and spinal cord at 1 hour, 3 hours and 24 hours.
# [2] = test system: MT-1 cells, a human breast cancer cell line; experiment: Effect of PDT in vertebrae and long bones with metastases (area of effect, histology); type: in vivo, mu/mu nude rats
# Description: (§1) Method: Thirty mu/mu nude rats were used in this part of the study. The rats received a left ventricular intracardiac injection with MT-1 cells as described earlier. At day 21 post injection each animal was anesthetized with 2% halothane/air mixture and placed on a custom made radiolucent stereotactic jig in the left lateral decubitus position. Prior to this it was established by histological methods that animals with tumors contained tumor in most vertebral bodies and long bones. Because lesions within the vertebral bodies could not be detected by fine detail radiography, T12 and L4 vertebrae were selected as representative levels for treatment. An 18 g needle was placed on the cortex of the targeted vertebrae or long bone with the use of a mini C-arm image intensifier. A 300 mW diode laser coupled to a 200 um fiber was used to deliver 690 nm light. BPD-MA was administered intravenously at a dose of 2 mg/kg prior to the administration of the light dose. […] Light doses ranged from 25 J to 150 J. Light was delivered at 150 mW for all treatments and the effects of different drug light intervals and different light doses using a fixed drug concentration were evaluated. The animals were examined for paralysis post treatment. The animals were sacrificed using CO2 inhalation. Vertebrae were then harvested and fixed in 10% formalin for 7 days. Micro-CT images were obtained and then the samples were decalcified in 10% formic acid for 7 days. The tissue was then blocked and paraffin embedded and 10 um sections were cut. The sections were analyzed under light microscopy using H&E staining as well as TUNEL and human EGF-r immunohistochemistry. The area of effect as denoted by necrosis and apoptosis was identified and measured using a Nikon slide scanner and Image Pro software.
# [3] = test system: MT-1luc+ metastatic lesions; experiment: Targeted bioluminescent lesions, pre and post-PDT bioluminescent imaging; type: in vivo, nude mu/mu rats
# Method: Method: Twenty nude mu/mu (Harlan) female rats (4-6 weeks of age) were used in this part of the study. The protocol was in accordance with the Canadian Council on Animal Care prior to initiation. Prior to injection each animal was anesthetized with 2% halothane/air mixture in a sterile environment. Twenty animals were used for injection. The chest was prepared with alcohol and 2×10^6 MT-1luc+ cells, a human breast cancer cell line carrying the luciferase reporter gene, were injected into the left ventricle using a 1 ml syringe with a 26 g needle. Pulsatile blood in the syringe was ensured prior to each injection. The animals were placed back into their cages and fed water and rat chow ad libitum. At day 18 the animals were imaged using the Xenogen IVIS system. To do this 100 mg/kg luciferin was injected into the peritoneal cavity of each animal and each animal was imaged 5 minutes following injection for a 1 to 5 minute image acquisition period. The animals were then imaged on the same custom made stereotactic radiolucent jig using a mini-C-arm image intensifier which allowed correlation of the bioluminescent signal to the vertebrae. FIGS. 1A-C show stereotactic targeting of bioluminescent metastatic lesions using a mini-C-arm image intensifier. FIG. 1A is a bioluminescent overlay image of a nude rat with metastatic lesions on a radio lucent stereotactic jig. FIG. 1B is a fluoroscan image of markers placed along the grid of the stereotactic jig in correlation to the bioluminescent metastases and resulting in localization of the lesion.
# The lesions were then targeted and treated with 25 J or 150 J at a 3 hour drug light interval. The animals were then re-imaged with the Xenogen IVIS system 48 hours post treatment in the stereotactic frame. Signal intensity (photons/second/cm^2) at the targeted site before treatment was compared to signal intensity following treatment and compared to lesions not treated using Igor Pro software (Alameda, Calif.). The animals were then sacrificed using CO2 inhalation and the spines and long bones were harvested. Samples were placed in 10% formalin for 7 days and micro-CT images of the vertebrae and long bones were obtained. The vertebrae were examined histologically using H&E staining and immunohistologically with human EGF-r and TUNEL stains as described earlier. ANOVA Bonferroni and two-tailed paired T-test statistical techniques were applied.
# [4] = Effect of light dose on the rat spinal cord, spinal nerves and peripheral nerves (hind leg paralysis); type: in vivo, mu/mu nude rats
# Description: as §1
# [5] = Treatment groups: deaths of rats; type: in vivo, mu/mu nude rats
# [6] = pig, in vivo
# Method: In this study, 50 kg pigs were used. The pigs were pre-anesthetized with ketamine/xylazine 20/2 mg/Kg IM for induction. An IV line was established and 0.9% saline solution was run at 5 ml/Kg/hr. Verteporfin was administered through the IV line using an infusion pump. The pigs were intubated and maintained on a ventilator with isofluorane/nitrous oxide inhalant by animal care professionals. The pigs were placed prone on a radiolucent surgical table with appropriate bolsters for support and padding. A sterile prep was made with betadine soap and scrub and prep solution. A small stab incision was made over the lumbothoracic spine of the pig.
# Placement into the vertebral body through a transpedicular and parapedicular approach was facilitated by the use of a CT-Carm. The L1 and L2 vertebrae were targeted.
# A cannulated exchange sheath was placed over the guide rod and inserted through the incision. The guide rod was then removed, and a fiber optic cable sheath was then inserted down the cannula of the exchange sheath. […] The cannulated bone screw assembly was pushed down the cannulated exchange sheath. […]
# Detector and diffusing fibers were placed in the same transverse plane. The diffusing fiber was moved incrementally with respect to the detector fiber and differences in power were measured at five different distances from the detector source using a computer aided photomultiplier tube. […]
# [7] = test system: orthotopic chondrosarcoma and fibrosarcoma tumor models; conditions: 4 weeks post treatment; 15 minute and 3 hour drug light interval; cited from earlier work
# [8] = 25 J, drug-light interval 3 hrs
# [9] = 50 J, drug-light interval 3 hrs
# [10] = 75 J, drug-light interval 0.75 hrs
# [11] = 75 J, drug-light interval 3 hrs
# [12] = 100 J, drug-light interval 3 hrs
# [13] = 150 J, drug-light interval 3 hrs
substance,measurement,setting,value
benzoporphyrin derivative monoacid ring A [BPD-MA],"Mean (absorbance), SRB assay","MT-1 cells; Group 1: drug 1 ug/ml, light 200 J/cm^2, 690 nm, 8 hour incubation",.2923
same,"Mean (absorbance), SRB assay","MT-1 cells; Group 2: drug 1 ug/ml, light 25 J/cm^2",.1946
same,"Mean (absorbance), SRB assay","MT-1 cells; Group 3: drug 10 ug/ml, light 200 J/cm^2",.2558
same,"Mean (absorbance), SRB assay","MT-1 cells; Group 4: drug 10 ug/ml, light 25 J/cm^2",.2049
same,"Mean (absorbance), SRB assay","MT-1 cells; Group 7: drug 1 ug/ml, no light",1.2392
same,difference in absorbance versus untreated wells,MT-1 cells; drug only,No significant difference
same,difference in absorbance versus untreated wells,MT-1 cells; wells treated with light and drug,significant difference
same,BPD-MA fluorescence in bone marrow,[1]; 1 hour,contained signal
same,BPD-MA fluorescence in spinal cord,[1]; 1 hour,no drug being present
same,BPD-MA fluorescence in bone marrow,[1]; 3 hours,intense signal
same,BPD-MA fluorescence in spinal cord,[1]; 3 hours,intense signal
same,fluorescence of the drug within the spinal cord and vertebrae,[1]; 24 hours,returned to baseline levels
same,serum drug concentration,[1]; after 3 hours,began to decline
same,serum drug concentration,[1]; by 24 hours post injection,returned to baseline
same,uptake of BPD-MA in spinal cord,[1]; drug uptake studies (fluorimetry),minimal uptake
same,delay of uptake into the spinal cord,[1]; fluorescence microscopy,greater than 1 hour
same,serum drug concentration,[1]; over 15 minutes post tail vein injection,rapid increase
same,Antero-Posterior dimension of effect,[2]; [8],2.62 mm
same,Rostral-Caudal dimension of effect,[2]; [8],4.59 mm
same,Area of effect,"[2]; 25 J, drug-light interval 3 hrs, 2 mg/kg i.v.",8.435 mm^2
same,Antero-Posterior dimension of effect,[2]; [9],3.89 mm
same,Area of effect,[2]; [9],15.04 mm^2
same,Rostral-Caudal dimension of effect,[2]; [9],5.66 mm
same,Antero-Posterior dimension of effect,[2]; [10],5.05 mm
same,Area of effect,[2]; [10],82.47 mm^2
same,Rostral-Caudal dimension of effect,[2]; [10],17.47 mm
same,Antero-Posterior dimension of effect,[2]; [11],5.09 mm
same,Area of effect,[2]; [11],52.38 mm^2
same,Rostral-Caudal dimension of effect,[2]; [11],11.67 mm
same,Antero-Posterior dimension of effect,[2]; [12],5.05 mm
same,Area of effect,[2]; [12],45.49 mm^2
same,Rostral-Caudal dimension of effect,[2]; [12],13.8 mm
same,Antero-Posterior dimension of effect,[2]; [13],5.78 mm
same,Area of effect,[2]; [13],80.53 mm^2
same,Rostral-Caudal dimension of effect,[2]; [13],13.05 mm
same,diameter of largest area of effect,"[2]; 200 um fiber optical cable, treatment time 16 minutes",2.2 cm
same,ablation of tumor tissue,[2]; 24 hour drug light interval,No effect; also recorded: no difference
same,"effect on tumor, bone, bone marrow or spinal cord","[2]; drug only, no light",did not affect
same,decrease in tumor growth compared to control lesions,"[3]; 25 J, 3 hour drug light interval",66%
same,"PostRx/PreRx, Rx Area",[3]; [8],1.25
same,reduction of bioluminescent signal from the targeted site,"[3]; 150 J, 3 hour drug light interval, 48 hours following treatment",87%
same,decrease in tumor growth compared to control lesions,"[3]; 150 J, 3 hour drug light interval, one treatment",99.8%
same,"PostRx/PreRx, Rx Area","[3]; 150 J, drug light interval 3 hrs",0.139
same,Mean Count Rx Area,"[3]; Post-PDT (48 hours), 25 J, drug-light interval 3 hrs",2.33 × 10^4
same,Mean Count Rx Area,"[3]; Post-PDT (48 hours), 150 J, drug light interval 3 hrs",1.42 × 10^3
same,Mean Count Rx Area,"[3]; Pre-PDT, 25 J, drug-light interval 3 hrs (n = 2)",1.86 × 10^4
same,Mean Count Rx Area,"[3]; Pre-PDT, 150 J, drug light interval 3 hrs (n = 5)",1.02 × 10^4
same,Hind Leg Paralysis (animals),"[4]; 25 J, T12, drug light interval 3 hr, N = 5",0
same,Hind Leg Paralysis (animals),"[4]; 50 J, T12, drug light interval 3 hr, N = 5",2 unilateral
same,Hind Leg Paralysis (animals),"[4]; 75 J, T12, drug light interval 3 hr, N = 4",1 bilateral
same,Hind Leg Paralysis (animals),"[4]; 100 J, T12, drug light interval 3 hr, N = 3",2 unilateral
same,Hind Leg Paralysis (animals),"[4]; 125 J, T12, drug light interval 3 hr, N = 2",1 bilateral
same,Hind Leg Paralysis (animals),"[4]; 150 J, T12, drug light interval 0.25 hr, N = 4",4
same,Hind Leg Paralysis (animals),"[4]; 150 J, T12, drug light interval 3 hr, N = 4",3 bilateral
same,Death During PDT (animals),"[5]; MT-1 group, n = 20",0
same,Death Following Verteporfin Injection (animals),"[5]; MT-1 group, n = 20",1
same,Death During PDT (animals),"[5]; MT-1luc+ group, n = 30",1
same,Death Following Verteporfin Injection (animals),"[5]; MT-1luc+ group, n = 30",2
same,complications attributed to the PDT,[6],no hindleg paralysis
same,lesions completely ablated,[7],33%
